One compound from ChEMBL document CHEMBL1131268, “Preparation of biotinylated allosamidins with strong chitinase inhibitory activities” (Bioorg Med Chem Lett, 1998) can be followed below.

The structures appear in SMILES notation.

Experiment [1] relates to Chitinase (Trichoderma). The experiment in a line: Compound was evaluated for inhibitory activity against Trichoderma Chitinase in presence of allosamidin at the dose of 31 ug/mL.
Experiment [2] has as its system Chitinase (Trichoderma). Nature of the experiment: Compound was evaluated for inhibitory activity against Trichoderma Chitinase in presence of allosamidin at the dose of 125 ug/mL.
Experiment [3] concerns Chitinase (Trichoderma). The experiment in a line: Compound was evaluated for inhibitory activity against Trichoderma Chitinase in presence of allosamidin at the dose of 7.8 ug/mL.
Experiment [4] has as its system Chitinase (Trichoderma). Nature of the experiment: Compound was evaluated for inhibitory activity against trichoderma chitinase in presence of allosamidin at the dose of 500 ug/mL.

As for `CC(=O)NC(/C=N/NC(=O)CCCCCNC(=O)CCCCC1SC[C@@H]2NC(=O)N[C@H]12)C(OC(/C=N/NC(=O)CCCCCNC(=O)CCCCC1SC[C@@H]2NC(=O)N[C@H]12)CO)OC1C(CO)OC(OC2C(O)C3N=C(N(C)C)OC3C2CO)C(NC(C)=O)C1O` (some centres undefined), the inhibition was found to be 21.9% in the experiment on Chitinase (Trichoderma) [1], 42.2% in the experiment on Chitinase (Trichoderma) [2], 7.8% in the experiment on Chitinase (Trichoderma) [3] and 65.6% with Chitinase (Trichoderma) [4].

Broadly, the inhibition is the relative decrease from the control value, in per cent.
